Experiment: xn = mol fraction of the nth substance listed

ClC(Cl)(Cl)Cl + CC(C)O
313.15 K, 101.33 kPa
Details	viscosity [mPa·s]
x2 = 0.115	0.7291
x2 = 0.22	0.7336
x2 = 0.325	0.7548
x2 = 0.421	0.7812
x2 = 0.5	0.8175
x2 = 0.602	0.8746
x2 = 0.685	0.9355
x2 = 0.745	0.9868
x2 = 0.879	1.145

CCCCCCCCCCCCCC(=O)O + CC(C)[C@@H]1CC[C@@H](C)C[C@H]1O
100 kPa, x1 = 0.2
Details	viscosity [mPa·s]
298.15 K	33.99
303.15 K	24.78
308.15 K	18.54
313.15 K	14.21
318.15 K	11.11
323.15 K	8.85

CCCC(C)=O + CCC(C)=O
viscosity [mPa·s], 101 kPa
Details	x2 = 0.2	x2 = 0.4	x2 = 0.6	x2 = 0.8
293.15 K	0.483	0.461	0.439	0.418
313.15 K	0.388	0.372	0.357	0.341

ClC(Cl)(Cl)Cl + CCC(C)=O
Details	viscosity [mPa·s]
298 K, 101.3 kPa, x1 = 0.1477	0.485
298 K, 101.3 kPa, x1 = 0.2858	0.543
298 K, 101.3 kPa, x1 = 0.4787	0.648
298 K, 101.3 kPa, x1 = 0.629	0.697
298 K, 101.3 kPa, x1 = 0.8296	0.792
298.15 K, 101.33 kPa, x2 = 0.1954	0.736
298.15 K, 101.33 kPa, x2 = 0.397	0.623
298.15 K, 101.33 kPa, x2 = 0.405	0.62
298.15 K, 101.33 kPa, x2 = 0.499	0.576
298.15 K, 101.33 kPa, x2 = 0.509	0.576
298.15 K, 101.33 kPa, x2 = 0.745	0.483
298.15 K, 101.33 kPa, x2 = 0.752	0.472
318 K, 101.3 kPa, x1 = 0.1385	0.3877
318 K, 101.3 kPa, x1 = 0.2858	0.4379
318 K, 101.3 kPa, x1 = 0.4821	0.5052
318 K, 101.3 kPa, x1 = 0.6311	0.5625
318 K, 101.3 kPa, x1 = 0.8418	0.6572

CCN(CC)CC + CCC(C)O
303.15 K, 101 kPa
Details	viscosity [mPa·s]
x1 = 0.01087	2.436
x1 = 0.02221	2.406
x1 = 0.0326	2.38
x1 = 0.04176	2.357
x1 = 0.05247	2.33
x1 = 0.06249	2.302
x1 = 0.07262	2.276
x1 = 0.08419	2.246
x1 = 0.09512	2.217

ClC(Cl)(Cl)Cl + CCC(C)O
viscosity [mPa·s], 101 kPa
Details	298.15 K	308.15 K	318.15 K
x2 = 0.0864	0.89	0.779	0.679
x2 = 0.1674	0.934	0.807	0.686
x2 = 0.2076	0.91	0.801	0.695
x2 = 0.2585	0.94	0.819	0.701
x2 = 0.3003	0.954	0.825	0.713
x2 = 0.3969	1.053	0.862	0.731
x2 = 0.5009	1.163	0.938	0.783
x2 = 0.5957	1.335	1.039	0.86
x2 = 0.6933	1.545	1.183	0.942
x2 = 0.7903	1.863	1.378	1.087
x2 = 0.9054	2.429	1.746	1.287

ClC(Cl)(Cl)Cl + CCCC(=O)OCC
101.33 kPa
Details	viscosity [mPa·s]
303.15 K, x1 = 0.061	0.606
303.15 K, x1 = 0.1443	0.621
303.15 K, x1 = 0.2812	0.648
303.15 K, x1 = 0.3929	0.672
303.15 K, x1 = 0.5226	0.699
303.15 K, x1 = 0.5625	0.708
303.15 K, x1 = 0.6324	0.726
303.15 K, x1 = 0.7331	0.748
303.15 K, x1 = 0.8278	0.778
303.15 K, x1 = 0.8866	0.798
303.15 K, x1 = 0.9455	0.819
313.15 K, x1 = 0.2056	0.586
313.15 K, x1 = 0.4083	0.615
313.15 K, x1 = 0.5058	0.631
313.15 K, x1 = 0.6059	0.647
313.15 K, x1 = 0.799	0.69

CCN(CC)CC + CCCCCC
viscosity [mPa·s], 101.33 kPa
Details	x1 = 0.1076	x1 = 0.2064	x1 = 0.4089	x1 = 0.5106	x1 = 0.6081	x1 = 0.804	x1 = 0.9018
303.15 K	0.2744	0.276	0.2838	0.2911	0.3002	0.3248	0.3408
313.15 K	0.2432	0.2489	0.2626	0.271	0.2799	0.3004	0.3125

ClC(Cl)(Cl)Cl + CCCCCC
298.15 K, 101 kPa
Details	viscosity [mPa·s]
x1 = 0.1	0.3171
x1 = 0.1729	0.3422
x1 = 0.2	0.3432
x1 = 0.3	0.3743
x1 = 0.3869	0.4102
x1 = 0.4	0.4105
x1 = 0.5	0.4532
x1 = 0.5869	0.5067
x1 = 0.6	0.5052
x1 = 0.7	0.5705
x1 = 0.7906	0.6461
x1 = 0.8	0.6544
x1 = 0.9	0.7635

CCN(CC)CC + CCCCCCC
303.15 K, 101 kPa
Details	viscosity [mPa·s]
x1 = 0.00966	0.3735
x1 = 0.01875	0.3719
x1 = 0.02995	0.3707
x1 = 0.0422	0.3687
x1 = 0.04845	0.3675
x1 = 0.05931	0.3663
x1 = 0.07022	0.365
x1 = 0.07742	0.3639
x1 = 0.08877	0.363
x1 = 0.09882	0.3622

CCN(CC)CC + CCCCCCCC
viscosity [mPa·s], 101.33 kPa
Details	x1 = 0.1983	x1 = 0.4032	x1 = 0.5055	x1 = 0.6044	x1 = 0.7987	x1 = 0.9028
303.15 K	0.4507	0.4233	0.411	0.3999	0.3795	0.3694
313.15 K	0.3913	0.3701	0.3605	0.3523	0.3379	0.331

CCCOC(C)=O + CCCCCCCCCC
298.15 K, 101.33 kPa
Details	viscosity [mPa·s]
x2 = 0.0879	0.565
x2 = 0.1221	0.571
x2 = 0.1602	0.578
x2 = 0.2376	0.591
x2 = 0.3166	0.606
x2 = 0.3821	0.62
x2 = 0.4847	0.644
x2 = 0.6012	0.678
x2 = 0.715	0.718
x2 = 0.8476	0.776
x2 = 0.9258	0.817

ClC(Cl)(Cl)Cl + CCCCCCCCCCO
298.15 K, 101 kPa
Details	viscosity [mPa·s]
x2 = 0.05	1.031
x2 = 0.097	1.224
x2 = 0.15	1.441
x2 = 0.2	1.775
x2 = 0.39	3.091
x2 = 0.49	4.012
x2 = 0.59	5.08
x2 = 0.8	7.86

— the CheMixHub viscosity set
